According to patent US5620955A, “Bombesin receptor antagonists and uses thereof” (Peptide Technologies Corporation, priority 1993, dated 1997):
Read-outs that look alike come from different tables or passages of the source. Non-standard residues stand in square brackets, D forms with d. Residues, ends and D or L forms follow the SMILES beside them. *: point of attachment. BrAc = O=C(CBr)*

Columns and labels:
BBN receptor [1] = target: T1, BBN receptor (Rattus norvegicus, UniProt P52500); assay: Inhibition of 125I bombesin binding to rat pancreatic acinar cells
Procedure: Inhibition of equilibrium binding of ^125 I labeled bombesin to acinar membranes by the compounds was determined. The Kd was determined by dividing IC50 (the concentration of synthetic compound required to inhibit 50% of the specific binding of labelled BBN) by the concentration of radiolabeled peptide.

BBN receptor [2] = target: T2, BBN receptor (Homo sapiens, UniProt P30550); assay: Inhibition of [125I]Tyr4-BBN binding to SCLC NCI-H345 membranes; conditions: for inhibition of BBN binding to SCLC membranes (in words): radiolabelled Tyr4-BBN
T2 construct: endogenous in cells; host or cells: NCI-H345 (human SCLC)
Procedure: (§1) Acinar cells from rat pancreas bind BBN and secrete amylase when treated with BBN. The ability of potential antagonists to bind to rat pancreatic acinar cells was examined by determining the ability of the compounds to inhibit the binding of radiolabelled BBN. […] Finally, antagonist activity of the compounds was determined by measuring the ability of compounds to prevent the release of amylase from cells in response to BBN. […] This cell line was also used to evaluate biological activities of potential antagonists derived from the structures of BBN and GRP. The binding of synthetic compounds to cellular membranes prepared from NCI-H345 was determined. The ability of potential antagonists to block the BBN-stimulated increase in cytosolic levels of Ca^++ was determined. Compounds showing inhibition were further tested to determine the effect on growth of two human SCLC cell lines in culture.
Potential antagonists were also evaluated for their ability to inhibit the binding of radiolabelled Tyr^4 -BBN to SCLC membranes and for their effects on BBN signal transduction in SCLC cells.

NCI-H720 = assay: Clonagenic assay, colony formation of NCI-H720; assay type: cell-based, human; conditions: for colony formation: NCI-H720; for colony formation (in words): second SCLC line (NCI-H270 in the text, NCI-H720 in Table 4), 1 μM
Procedure: (§2) On the day of the assay, cells were harvested, centrifuged and suspended in the buffer. The agarose cloning system consisted of 3 ml of 0.5% agarose in SIT medium with 5% fetal bovine serum in six well plates. To a top layer, consisting of 3 ml HITES medium in 0.3% agarose, the peptides at two times concentration and 6×10^4 single viable cells, were added. For each peptide concentration, triplicate wells were plated. After two weeks, 1 ml of 0.1% p-iodo-nitrotetrazolium violet was added, and after 16 hours at 37° C., the plates were screened for colony formation; the number of colonies larger than […] in diameter were counted using a Bausch and Lomb Omnicon image analysis system.

NCI-H345 [3] = assay: Clonagenic assay, colony formation of NCI-H345; assay type: cell-based, human; conditions: antagonist 1 μM alone, mean ± S.E. of 3
BBN receptor [4] = target: T2, BBN receptor; assay: Cytosolic Ca++ assay in SCLC cell line NCI-H345; assay type: cell-based; parameters: key: antagonized (A); had no effect (--) on the ability of 10 nM BBN to; conditions: compound 10 μM; 10 nM BBN elevation of cytosolic Ca++
Procedure: SCLC cell line NCI-H345 was cultured for two days in medium containing 10^-8 M hydrocortisone, 5 μg/ml bovine insulin, 10 μg/ml human transferrin, 10^-8 M β-estradiol and 3×10^-8 M Na2 SeO3. The cells were harvested and washed, resuspended in medium containing 20 mM HEPES, pH 7.4, and loaded with 5 μM Fura 2 AM (Calbiochem) for 30 minutes. The cells were centrifuged at 150×g for 10 minutes to remove extracellular dye and resuspended and placed in a spectrofluorometer cell equipped with stirring and 37° C. heating. The emission was read at 510 nm with 340 excitation (Moody et al., Biochem. Biophys. Res. Commun. 147:189 (1987)). The response of compounds at 5 μM was measured initially as a screen and compared to that of 10 nM BBN. The response of varying concentrations of peptide (nM to μM) in the presence of 10 nM BBN was determined.

NCI-H345 [5] = assay: Clonagenic assay, colony formation of NCI-H345; assay type: cell-based, human; parameters: key to Growth: significantly reduced (R); had no effect (--) on th; conditions: for reversal of colony inhibition by BBN (in words): 1 μM antagonist, 10 nM BBN added, both cell lines; for colony formation (in words): NCI-H345, 1 μM; for colony formation: NCI-H345, antagonist 1 μM plus BBN 10 nM; for Growth: compound 1 μM, clonal growth of a human tumor cell line
Procedure: as §2, with “The effect of 1 to 1000 nM concentration of peptides on growth of NCI-H345 colonies stimulated by 10 nM BBN was measured in the agarose cloning system (Mahoud et al., Cancer Res. 51:1798 (1991); Staley et al., Peptides 12:145-149 (1991)). […] On” for “On”

BBN receptor [6] = target: T1, BBN receptor; assay: Inhibition of bombesin-stimulated amylase release from rat pancreatic acini; assay type: cell-based; conditions: half-maximal inhibition of bombesin-stimulated amylase release from acini; mean ± s.e.m.
Procedure: as §1
The incubation solution contained 1% albumin and the wash solution contained 0.2% albumin. The solution was equilibrated with 100% O2. Dispersed acini were suspended in 20 ml of solution. Samples of 1 ml were incubated in the presence of various concentrations of compounds in the presence of 1 nM bombesin. After the first incubation the samples were washed 4 times with wash solution at 4° C. The acini were then resuspended in fresh incubation buffer and incubated at 37° C. Amylase release was measured by the Phadebas reagent. Amylase secretion during a given incubation was expressed as the percentage of amylase present in the acini at the beginning of that incubation that was released into the extracellular medium.

BBN receptor [7] = target: T1, BBN receptor; assay: Stimulation of amylase release from rat pancreatic acinar cells by the compound alone (agonist test); assay type: cell-based
bombesin receptor = conditions: inhibits growth with moderate potency; literature value; cited from earlier work
[8] = antagonist 1 μM alone, mean ± S.E. of 3

T1 sequence (P52500 whole entry): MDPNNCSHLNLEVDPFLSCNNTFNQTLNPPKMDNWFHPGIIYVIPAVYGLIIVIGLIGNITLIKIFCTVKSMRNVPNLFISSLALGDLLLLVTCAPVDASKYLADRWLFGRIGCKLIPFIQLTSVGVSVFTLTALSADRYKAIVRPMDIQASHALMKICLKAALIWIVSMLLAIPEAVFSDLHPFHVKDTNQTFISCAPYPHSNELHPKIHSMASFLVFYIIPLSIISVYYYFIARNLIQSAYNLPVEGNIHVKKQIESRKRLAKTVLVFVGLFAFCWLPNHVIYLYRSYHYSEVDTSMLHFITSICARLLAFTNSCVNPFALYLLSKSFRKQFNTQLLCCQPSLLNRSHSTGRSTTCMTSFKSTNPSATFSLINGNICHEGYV
T2 sequence (P30550 whole entry): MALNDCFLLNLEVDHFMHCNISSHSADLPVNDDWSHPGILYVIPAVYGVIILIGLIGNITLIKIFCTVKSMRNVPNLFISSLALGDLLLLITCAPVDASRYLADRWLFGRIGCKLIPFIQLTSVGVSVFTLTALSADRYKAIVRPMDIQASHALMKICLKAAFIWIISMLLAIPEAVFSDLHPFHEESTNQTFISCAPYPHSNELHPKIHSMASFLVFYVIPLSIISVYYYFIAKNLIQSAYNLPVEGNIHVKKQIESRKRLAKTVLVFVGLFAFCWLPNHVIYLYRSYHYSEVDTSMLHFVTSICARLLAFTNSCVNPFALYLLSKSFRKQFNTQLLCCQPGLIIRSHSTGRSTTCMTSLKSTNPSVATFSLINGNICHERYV

CCOC(=O)[C@H](CC(C)C)NC(=O)[C@H](Cc1c[nH]cn1)NC(=O)[C@@H](C)NC(=O)[C@@H](NC(=O)[C@H](C)NC(=O)[C@H](Cc1c[nH]c2ccccc12)NC(=O)[C@H](Cc1c[nH]cn1)NC(C)=O)C(C)C [PTC 818] (Ac-HWAV[dA]HL-OEt)
Kd (BBN receptor [1]; inhibition of 125I bombesin binding, IC50 divided by radioligand concentration): 8.1 ± 1.8 nM | binding to rat pancreatic acinar cells (in words) (BBN receptor [1]; inhibition of radiolabelled BBN binding): did bind to the cells | IC50 (BBN receptor [2]; 50% inhibition of specific [125I]Tyr4-BBN binding, NCI-H345, read-out: IC50): 25 nM | inhibition of BBN binding to SCLC membranes (in words) (BBN receptor [2]): potent inhibitors of BBN binding | colony formation (NCI-H720; [8]): 36 ± 4 Colony per mm^2 | colony formation (NCI-H720; antagonist 1 μM plus BBN 10 nM): 62 ± 7 Colony per mm^2 | colony formation (in words) (NCI-H720): reduce the amount of colony formation | colony formation (NCI-H345 [3]): 20 ± 5 Colony per mm^2 | Ca++ effect (BBN receptor [4]): A | reversal of colony inhibition by BBN (in words) (NCI-H345 [5]): can be reversed | colony formation (in words) (NCI-H345 [5]): reduce the amount of colony formation | colony formation (NCI-H345 [5]): 57 ± 6 Colony per mm^2 | Growth (NCI-H345 [5]): R | IC50 (BBN receptor [6]): 4.9 ± 0.1 nM | EC50 (BBN receptor [7]): > 3 µM

[Psi^13,14, Leu^14 ]BBN
Ki (bombesin receptor): 30 nM

CCOC(=O)[C@H](CC(C)C)NC(=O)[C@H](Cc1c[nH]cn1)NC(=O)[C@@H](C)NC(=O)[C@@H](NC(=O)[C@H](C)NC(=O)[C@H](Cc1c[nH]c2ccccc12)NC(=O)[C@H](CCC(N)=O)NC(=O)[C@H](CC(N)=O)NC(=O)CBr)C(C)C [PTC 816] (BrAc-NQWAV[dA]HL-OEt)
IC50 (BBN receptor [2]): 55 nM | inhibition of BBN binding to SCLC membranes (in words) (BBN receptor [2]): potent inhibitors of BBN binding | colony formation (NCI-H720; [8]): 37 ± 6 Colony per mm^2 | colony formation (NCI-H720; antagonist 1 μM plus BBN 10 nM): 66 ± 8 Colony per mm^2 | colony formation (in words) (NCI-H720): reduce the amount of colony formation | colony formation (NCI-H345 [3]): 27 ± 4 Colony per mm^2 | Ca++ effect (BBN receptor [4]): A | reversal of colony inhibition by BBN (in words) (NCI-H345 [5]): can be reversed | colony formation (in words) (NCI-H345 [5]): reduce the amount of colony formation | colony formation (NCI-H345 [5]): 52 ± 3 Colony per mm^2 | Growth (NCI-H345 [5]): R
